This is an account of results in patent publication US9433624B2, “Methods and compositions for the treatment of metabolic disorders” (BIOMARIN PHARMACEUTICAL INC., priority 2003, dated 2016).

The conditions of data set [1]: room temperature; cited from earlier work.
Data set [2] concerns humans with elevated blood levels of phenylalanine (>600 μmol/L). The data set is described as follows: Open label single ascending oral dose study of 6R-BH4, blood Phe before and 24 hours after each dose. It is filed as in vivo. The text has this: (§1) Criteria for inclusion in the study included (1) baseline blood Phe levels of >600 μmol/L, (2) age of at least 8 years. Criteria for exclusion from the study included (1) pregnancy or breastfeeding, (2) concurrent diseases or conditions that require medication or treatment, (3) concurrent treatment with any drug known to inhibit folate synthesis, and (4) treatment with any investigational drug within 30 days. Each of the patients also was identified as having a mutation in the phenylalanine hydroxylase (PAH) gene. Study subjects underwent baseline assessments, including medical history with assessment of phenylketonuria (PKU) or hyperphenylalaninemia (HPA) related signs and symptoms, physical examinations, vital signs, serum amino acid (i.e., phenylalanine, tyrosine, and tryptophan) blood levels, and routine laboratory tests (chemistry, hematology, and urinalysis) before inclusion in the study.
Within a maximum of 4 weeks following the completion of baseline assessments, eligible subjects began the first stage of the study. Single ascending doses of 10 mg/kg, 20 mg/kg and 40 mg/kg of 6R-BH4 were administered orally, with a washout period of at least 7 days between each dose, and subjects were monitored 24 hours after each dose. Subjects underwent a safety assessment and blood amino acid (i.e, phenylalanine, tyrosine, and tryptophan) level measurements before and 24 hours after each 6R-BH4 dose. Blood pressure was measured 30 minutes and 1 hour after each dose. Safety assessments included physical examinations, vital signs, serial assessment of PKU or HPA related signs and symptoms, recording of adverse events, and monitoring of changes in laboratory parameters (chemistry, hematology, and urinalysis). Subjects were instructed to continue their usual diet without any modification, and to record daily intake of food and beverages throughout the study.

The test system is the same in data set [3]. The data set is described as follows: Multiple dose study (7-day loading test), 6R-BH4 daily for 7 days, blood Phe and tyrosine. Type of data set: in vivo.
Description: as §1
After the first stage of the study was completed, subjects entered the second stage of the study, during which they received 10 mg/kg of 6R-BH4 daily in an oral dosage form, for a total of 7 days. After a washout period of at least 7 days, each subject received 20 mg/kg of 6R-BH4 daily for a total of 7 days. During the second stage of the study, subjects were monitored before dosing, at 24 and 72 hours after first dose, and on the 7th day of dosing at each of the two dose levels. Monitoring included a safety assessment as described above, measurement of serum blood amino acid (i.e, phenylalanine, tyrosine, and tryptophan) levels and evaluation of phenylalanine and tyrosine oral intake. Subjects were instructed to continue their usual diet without any modification, and to record daily intake of food and beverages throughout the study.
Of those 14 patients, 10 (71%) responded favorably to 10 mg/kg/day. […] The individual blood Phe responses to multiple doses of 10 mg/kg BH4 are shown in 11 adults (FIG. 17) and 9 children (FIG. 19). The individual blood Phe responses to multiple doses of 20 mg/kg BH4 are shown in 11 adults (FIG. 18) and in 9 children (FIG. 20).

For data set [4] the following is noted: Schircks dihydrochloride salt, oral tablets; cited from earlier work.
Data set [5] in a line: Storage stability of the polymorph form of BH4×2HCl, quality checked by HPLC. The following applies: minigrip bag, 40° C., 75% relative humidity. Type of data set: physicochemical. The procedure: The polymorph forms of BH4 described in the Moser Applications are a very stable crystalline form of the drug. The polymorph form can be easily filtered off, dried and ground to particle sizes desired for pharmaceutical formulations. These outstanding properties renders this polymorph form especially feasible for pharmaceutical application. The stability of the polymorph form of BH4 was determined after the BH4×2HCl (the polymorph form) had been stored for 8 months in a minigrip bag at 40° C. and 75% relative humidity. Quality was checked in different intervals throughout the 8 month period by HPLC.

For data set [6] the following is noted: for hygroscopicity / water adsorbed (content): dihydrochloride; for water adsorbed (content): released on heating at 10° C./minute.

Where two headings read alike, the source gives them in different places. Some results are limits rather than exact numbers.

As to `C[C@H](O)[C@H](O)[C@H]1CNc2nc(N)[nH]c(=O)c2N1` [6R-BH4, (6R)-5,6,7,8-tetrahydrobiopterin], the shelf-life in data set [1] was less than 8 h. The “blood Phe decline from baseline” value in data set [2] (single oral dose 10 mg/kg) was 10%±0.26%. Further, the results for the “blood Phe mean decline from baseline” value in data set [2] (single oral dose 20 mg/kg) and in data set [2] (single oral dose 40 mg/kg) were 17%±0.28% and 27%±0.25%, respectively. For the same compound, the “responders to 20 mg/kg who also responded to the lower dose (30% or greater reduction in blood Phe)” value in data set [3] (10 mg/kg/day, 10 of the 14 responders) came out at 71%. Besides, the “patients with sustained decrease in blood Phe concentration (responsive = decline of 30%)” value in data set [3] (20 mg/kg daily, 14/20 patients) was 70 % of the patients. Also, in data set [3] (10 and 20 mg/kg daily, some but not all patients), the “increase in blood tyrosine from baseline, some patients” value is listed as greater than 80%. The half-life entry in data set [4] is recorded as “approximately 3.5 hours”.
For the compound `C[C@H](O)[C@H](O)[C@H]1CNc2nc(N)[nH]c(=O)c2N1.Cl.Cl` [BH4×2HCl, (6R)-L-erythro-tetrahydrobiopterin dihydrochloride], the “HPLC [% area]” value came out at 98.4 % area in data set [5] (0 months (at the beginning)); 98.3 % area in data set [5] (after 1 month); 99.4 % area in data set [5] (after 1 week); 99.1 % area in data set [5] (after 3 months); 98.1 % area in data set [5] (after 8 months).
`C[C@H](O)[C@H](O)[C@H]1CNc2nc(N)[nH]c(=O)c2N1.Cl.Cl` [Form E, (6R)-L-erythro-tetrahydrobiopterin dihydrochloride]: the hygroscopicity entry in data set [6] was “non-hygroscopic”.
`C[C@H](O)[C@H](O)[C@H]1CNc2nc(N)[nH]c(=O)c2N1.Cl.Cl` [Hydrate form C, (6R)-L-erythro-tetrahydrobiopterin dihydrochloride]: in data set [6] (hydrate form C), the hygroscopicity entry was “slightly hygroscopic”.
As for `C[C@H](O)[C@H](O)[C@H]1CNc2nc(N)[nH]c(=O)c2N1.Cl.Cl` [Polymorph A, (6R)-L-erythro-tetrahydrobiopterin dihydrochloride], in data set [6], the hygroscopicity entry is reported as “slightly hygroscopic” and the “water adsorbed (content)” value is recorded as “about 3 percent by weight”. The “phase equilibration test of suspensions: form after filtration and air drying” value in data set [6] (tetrahydrofuran or tertiary-butyl methyl ether, five days and 18 hours respectively, under nitrogen, room temperature) is “unchanged polymorph form A”.
Consider `C[C@H](O)[C@H](O)[C@H]1CNc2nc(N)[nH]c(=O)c2N1.Cl.Cl` [Polymorph B, (6R)-L-erythro-tetrahydrobiopterin dihydrochloride], for which, in data set [6], the hygroscopicity result is “slightly hygroscopic”.
Take `C[C@H](O)[C@H](O)[C@H]1CNc2nc(N)[nH]c(=O)c2N1.Cl.Cl` [Polymorph F, (6R)-L-erythro-tetrahydrobiopterin dihydrochloride]: in data set [6], the hygroscopicity result is “slightly hygroscopic” and the “water adsorbed (content)” value is on record as “about 3 percent by weight”.
For `C[C@H](O)[C@H](O)[C@H]1CNc2nc(N)[nH]c(=O)c2N1.Cl.Cl` [Polymorph K, (6R)-L-erythro-tetrahydrobiopterin dihydrochloride], in that order: “slightly hygroscopic” and “about 2.0 percent by weight”.
For `C[C@H](O)[C@H](O)[C@H]1CNc2nc(N)[nH]c(=O)c2N1.Cl.Cl` [hydrate D, (6R)-L-erythro-tetrahydrobiopterin dihydrochloride], the hygroscopicity entry in data set [6] (hydrate form D) was “slightly hygroscopic”.
As for `C[C@H](O)[C@H](O)[C@H]1CNc2nc(N)[nH]c(=O)c2N1.Cl.Cl` [polymorph J, (6R)-L-erythro-tetrahydrobiopterin dihydrochloride], the hygroscopicity entry in data set [6] is “slightly hygroscopic”.
